According to patent US20260216074A1, “USE OF PACLITAXEL CATIONIC LIPOSOME IN TREATING TUMORS” (CSPC ZHONGQI PHARMACEUTICAL TECHNOLOGY (SHIJIAZHUANG) CO., …, priority 2023, published 2026):
Marks after values point to notes of the source that are not given here.

How the values were obtained:
[1] = tested on: prostate cancer RM-1 allografts; assay: Inhibitory effect of combination with DDP on prostate cancer RM-1 allografts in mice; type: in vivo, mouse RM-1 cells in female C57/BL6 mice
Procedure: Experimental animal: female C57/BL6 mice provided by Beijing Vital River Laboratory Animal Technology Co., Ltd.
Experimental method: Female C57/BL6 mice were subcutaneously inoculated with mouse prostate RM-1 cells. Six days after inoculation, the mice were grouped when the mean tumor volume was about 140 mm^3 (d0). Drugs were administered intravenously (except that DDP was administered intraperitoneally) at d0, d2, d4, d6, d8, and d10 for a total of 6 times. The experiment was terminated at d15. In the A1 high-dose group, A1 was administered at a dose of 12 mg/kg for the first three times and 6 mg/kg for the last three times, with a cumulative dose of 54 mg/kg; in the A1 low-dose group, A1 was administered at a dose of 6 mg/kg for six times, with a cumulative dose of 36 mg/kg; in the DPP group, DPP was administered at a dose of 1 mg/kg for six times, with a cumulative dose of 6 mg/kg; in the vehicle control group, 5% glucose injection (at an equal volume to A1 high-dose group) was administered; in the A1+DDP-1 group, A1 was administered at a dose of 6 mg/kg for six times, with a cumulative dose of 36 mg/kg, and DPP was administered at a dose of 1 mg/kg for six times, with a cumulative dose of 6 mg/kg; in the A1+DDP-2 group, A1 was administered at a dose of 12 mg/kg for the first three times and 6 mg/kg for the last three times with a cumulative dose of 54 mg/kg, and DPP was administered at a dose of 1 mg/kg for six times, with a cumulative dose of 6 mg/kg. During the experiment, the body weight and tumor volume of animals were monitored three times a week, and the values of the tumor volume (TV), relative tumor volume (RTV), and relative tumor proliferation rate (T/C) were calculated.
Methods for drug preparation: A1: the paclitaxel cationic liposome was dissolved by adding water for injection, and then diluted with glucose and sodium chloride injection to the desired concentration; DDP: the DDP powder was dissolved in 5% glucose injection and subjected to ultrasound to formulate the desired concentration.

[2] = tested on: human pancreatic cancer CFPAC-1 xenografts; assay: Inhibitory effect on human pancreatic cancer CFPAC-1 xenografts in mice; type: in vivo, human cells in female Nu/Nu nude mice
Procedure: Experimental animal: female Nu/Nu nude mice provided by Beijing Vital River Laboratory Animal Technology Co., Ltd.
Experimental method: Female Nu/Nu nude mice were subcutaneously inoculated with human pancreatic cancer CFPAC-1 cells. 5 days after inoculation, the mice were divided into 7 groups when the mean tumor volume was 228 mm^3 (d0), namely, the vehicle control group (5% glucose injection), the 6 mg/kg of A1 group, the 3 mg/kg or 6 mg/kg of A1+20 mg/kg of gemcitabine for injection (GEM) group, the 6 mg/kg of paclitaxel injection (Taxol) group, the 6 mg/kg of Taxol+20 mg/kg of GEM group, and the 20 mg/kg of GEM group, respectively. There were 10 mice in each group. Drugs were administered intravenously (except that the GEM was administered intraperitoneally for 5 times (at the first five time points)) at d0, d3, d6, d9, d13, and d16 for a total of 6 times. After the last administration, the mice were further observed for 11 d (i.e. d27) and the experiment was terminated. During the experiment, the body weight and tumor volume of animals were monitored twice a week, and the tumor volume (TV) was calculated. At the end of the experiment, the tumor weight was weighed and the tumor weight inhibition rate was calculated.
Methods for drug preparation: A1 was prepared using the same method as in Example 2. The gemcitabine for injection was dissolved in saline to achieve the desired concentration. Paclitaxel injection (Taxol) was diluted with saline to the desired concentration.

[3] = tested on: human triple-negative breast cancer MDA-MB-231 xenografts; assay: Inhibitory effect on human triple-negative breast cancer MDA-MB-231 xenografts in mice; type: in vivo, human cells in female NOD/SCID mice; conditions: dose 400 mg/kg po
Procedure: Experimental animal: female NOD/SCID mice provided by Beijing Vital River Laboratory Animal Technology Co., Ltd.
Experimental method: Female NOD/SCID mice were subcutaneously inoculated with human triple-negative breast cancer MDA-MB-231 cells. 7 days after inoculation, the mice were divided into 7 groups when the mean tumor volume was 120 to 130 mm^3 (d0), namely, the vehicle control group (5% glucose injection), the 6 mg/kg of A1 group, the 3 mg/kg or 6 mg/kg of A1+400 mg/kg of capecitabine for injection (CAP) group, the 6 mg/kg of paclitaxel injection (Taxol) group, the 6 mg/kg of Taxol+400 mg/kg of CAP group, and the 400 mg/kg of CAP group, respectively. The CAP for injection was administered intragastrically twice a week and the other drugs were administered intravenously twice a week for a total of 7 times (d0, d3, d7, d10, d14, d17, and d21). The experiment was terminated at d28. During the experiment, the body weight and tumor volume of animals were monitored twice a week, and the tumor volume (TV) was calculated. At the end of the experiment, the tumor weight was weighed and the tumor weight inhibition rate was calculated.
Methods for drug preparation: CAP was prepared by diluting with water for injection to the desired concentration, and the rest of drugs were prepared according to the method described in Example 3.

SMILES: N.N.[Cl][Pt][Cl] [DDP, Cisplatin]
- Tumor Volume d15 ([1]; cumulative dose 6 mg/kg (1 mg/kg x6) i.p., d0-d10, x ± sd, n = 9): 3494.6 ± 710.9 mm^3
- Tumor Volume d0 ([1]; cumulative dose 6 mg/kg (1 mg/kg x6) i.p., d0 at grouping, before dosing, x ± sd, n = 9): 145.1 ± 22.8 mm^3
- T/C ([1]; cumulative dose 6 mg/kg i.p., d15): 77.1%
- RTV ([1]; cumulative dose 6 mg/kg i.p., d15, x ± sd, n = 9): 24.9 ± 7.6

SMILES: Nc1ccn([C@@H]2O[C@H](CO)[C@@H](O)C2(F)F)c(=O)n1 [GME, gemcitabine]
- Tumor Volume d27 ([2]; dose 20 mg/kg ip x5, x ± sd, n = 10): 720.9 ± 152.8** mm^3
- Tumor Volume d0 ([2]; dose 20 mg/kg ip, d0 at grouping, before dosing, x ± sd, n = 10): 227.3 ± 52.8 mm^3
- Tumor Weight Inhibition Rate ([2]; dose 20 mg/kg ip, end of experiment (d27)): 48.4%
- Tumor Weight ([2]; dose 20 mg/kg ip, end of experiment (d27), x ± sd, n = 10): 0.8238 ± 0.3253 g

SMILES: CCCCCOC(=O)Nc1nc(=O)n([C@@H]2O[C@H](C)[C@@H](O)[C@H]2O)cc1F [CAP, capecitabine]
- Tumor Volume d20 ([3]; 7 times, x ± sd, n = 10): 1708.3 ± 564.8** mm^3
- Tumor Volume d0 ([3]; d0 at grouping, before dosing, x ± sd, n = 10): 124.5 ± 19.4 mm^3
- Tumor Weight Inhibition Rate ([3]; end of experiment (d28)): 33.4%
- Tumor Weight ([3]; end of experiment (d28), x ± sd, n = 10): 1.3679 ± 0.2649 g
